# Laboratory results taken from ChEMBL document CHEMBL1201862, “PubChem BioAssay data set” (2004).
# Activity calls are given as the source filed them.
# Key:
# Nonstructural protein 1 = Nonstructural protein 1 (Influenza A virus, UniProt Q194T2); type: functional, Influenza A virus (A/California/07/2009(H1N1))
# [1] = tested on: Streptococcus sp. 'group A'; test: Streptococcus pyogenes SK(-)GAS viability under kanamycin – luminescence, BacTiterGlo, confirmation, counter-screen for streptokinase expression inhibitor project, dose response (AID 1900); type: functional, organism-based
# [2] = target: T1, Serine/threonine-protein phosphatase (Candida dubliniensis (strain CD36 / CBS 7987 / NCPF 3949 / NRRLY-17841) (Yeast), UniProt B9W6M3); test: blockers of CaCl2-induced CDRE-lacZ signaling – S. cerevisiae, luminescence, secondary, dose response (AID 2388); type: functional, cell-based;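 note: yeast reporter cells carrying a calcineurin-responsive lacZ construct stimulated with calcium chloride; luminescent beta-galactosidase reporter signal in whole cells rather than isolated phosphatase activity; potency for inhibition where a drop in reporter signal means calcineurin blockade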
# T1 sequence (B9W6M3 whole entry): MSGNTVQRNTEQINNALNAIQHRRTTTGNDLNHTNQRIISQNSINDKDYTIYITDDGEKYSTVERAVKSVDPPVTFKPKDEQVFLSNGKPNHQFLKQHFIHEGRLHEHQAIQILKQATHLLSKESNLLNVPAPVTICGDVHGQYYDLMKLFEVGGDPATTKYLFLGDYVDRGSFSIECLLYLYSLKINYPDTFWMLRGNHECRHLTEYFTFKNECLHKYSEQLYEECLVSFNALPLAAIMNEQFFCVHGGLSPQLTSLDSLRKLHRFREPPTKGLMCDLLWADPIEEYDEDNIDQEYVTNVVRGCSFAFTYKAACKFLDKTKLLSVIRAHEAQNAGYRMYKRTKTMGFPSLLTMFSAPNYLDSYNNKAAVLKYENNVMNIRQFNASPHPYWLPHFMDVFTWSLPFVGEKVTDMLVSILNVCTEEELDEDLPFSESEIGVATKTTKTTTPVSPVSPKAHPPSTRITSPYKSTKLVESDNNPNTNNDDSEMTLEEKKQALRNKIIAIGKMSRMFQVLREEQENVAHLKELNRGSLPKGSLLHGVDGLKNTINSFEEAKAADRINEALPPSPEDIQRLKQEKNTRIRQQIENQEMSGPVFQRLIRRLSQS
# [3] = target: ATP-dependent molecular chaperone HSP82 (Candida albicans (strain WO-1) (Yeast), UniProt C4YTQ8); test: steroid-induced GRE reporter decrease in yeast – S. cerevisiae, luminescence, Hsp90 inhibitor project, dose response (AID 2400); type: functional, cell-based;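 note: beta-galactosidase luminescence from glucocorticoid response element reporter as proxy for Hsp90 function; inhibitor potency where signal loss means Hsp90 inhibition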
# Chain of ATP-dependent molecular chaperone HSP82 (C4YTQ8 whole entry): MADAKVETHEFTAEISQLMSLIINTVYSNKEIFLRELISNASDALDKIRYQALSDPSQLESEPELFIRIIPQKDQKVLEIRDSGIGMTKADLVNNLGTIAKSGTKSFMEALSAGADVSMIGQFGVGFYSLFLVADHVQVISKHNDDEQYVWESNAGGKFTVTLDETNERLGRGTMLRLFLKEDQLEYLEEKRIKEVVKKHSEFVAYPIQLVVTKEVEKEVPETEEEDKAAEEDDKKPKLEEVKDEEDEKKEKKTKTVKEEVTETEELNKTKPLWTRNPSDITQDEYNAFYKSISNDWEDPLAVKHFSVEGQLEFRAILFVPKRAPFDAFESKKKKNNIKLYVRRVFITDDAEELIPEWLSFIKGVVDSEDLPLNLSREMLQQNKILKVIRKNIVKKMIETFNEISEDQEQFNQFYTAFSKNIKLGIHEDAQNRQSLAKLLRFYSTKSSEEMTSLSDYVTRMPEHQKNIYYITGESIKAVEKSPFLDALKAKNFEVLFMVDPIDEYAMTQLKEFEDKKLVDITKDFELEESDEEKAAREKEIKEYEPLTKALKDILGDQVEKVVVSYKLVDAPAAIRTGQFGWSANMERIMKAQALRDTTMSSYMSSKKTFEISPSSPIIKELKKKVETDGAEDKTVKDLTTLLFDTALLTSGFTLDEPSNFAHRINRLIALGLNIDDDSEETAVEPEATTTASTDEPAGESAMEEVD
# cells = type: functional, cell-based
# [4] = Luminescence Cell-Based Dose Response HTS to Identify Inhibitors of 5'UTR Stem-Loop Driven Prion Protein mRNA Translation in H4 Neuroglioblastoma Cells. [Related pubchem assays: 1827 (Project Summary), 1813 (Primary HTS)]; type: functional
# [5] = Trypanosoma cruzi growth suppression in host cells – NIH3T3 host cells, beta-gal luminescence, confirmation (AID 2044); type: functional, cell-based;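 note: intracellular parasites grown in NIH/3T3 mouse fibroblasts as host cells; luminescent beta-galactosidase reporter signal from transgenic T. cruzi replicating inside host cells; inhibitors lower the luminescence signal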
# [6] = Luminescence Cell-Based Dose Response HTS to Identify Inhibitors of Luciferase Translation or Activity in H4-C Neuroglioblastoma Cells. [Related pubchem assays: 1813 (Primary HTS), 1827 (Project Summary)]; type: functional
# [7] = NIH-3T3 fibroblast cytotoxicity, dose response, cytotoxicity control, cell-based, fluorescence, Alamar Blue, secondary assay (AID 2327); type: functional;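 note: NIH-3T3 mouse fibroblasts cultured with fluconazole at 8 µg/mL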
# [8] = fluconazole-exposed Candida albicans growth modulators – fluorescence, retest, confirmation (AID 2467); type: functional, cell-based
# [9] = luciferase reporter signal suppression in cells – H4 neuroglioma cells, luminescence, dose response (AID 1990); type: functional, cell-based
# [10] = Luminescence Cell-Based Dose HTS Response to Identify Inhibitors of 5'UTR Stem-Loop Driven Prion Protein mRNA Translation in H4-C Neuroglioblastoma Cells. [Related pubchem assays (depositor defined):AID1814, AID1827]; type: functional
# [11] = Luminescence Cell-Based Dose Response HTS to Identify Activators of Luciferase Translation or Activity in H4-C Neuroglioblastoma Cells. [Related pubchem assays: 1829 (Project Summary), 1814 (Primary HTS)]; type: functional
# [12] = target: T2, Type-1 angiotensin II receptor (Homo sapiens, UniProt P30556); test: antagonism of angiotensin II type 1 receptor – cell-based, uHTS hits, selectivity assay for APJ receptor antagonist project, dose response (AID 463214); type: functional;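 note: antagonist potency against angiotensin II stimulated AT1 response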
# T2 sequence (P30556 whole entry): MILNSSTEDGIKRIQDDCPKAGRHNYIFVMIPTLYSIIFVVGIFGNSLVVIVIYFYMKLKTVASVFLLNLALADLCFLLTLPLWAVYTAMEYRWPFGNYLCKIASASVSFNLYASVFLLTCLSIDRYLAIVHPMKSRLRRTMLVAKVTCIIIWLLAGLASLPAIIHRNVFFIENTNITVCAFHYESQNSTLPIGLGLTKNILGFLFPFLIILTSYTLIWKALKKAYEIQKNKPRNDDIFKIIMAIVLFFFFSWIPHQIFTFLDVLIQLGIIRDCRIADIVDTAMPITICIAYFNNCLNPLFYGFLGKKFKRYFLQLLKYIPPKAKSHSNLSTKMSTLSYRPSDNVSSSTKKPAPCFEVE
# [13] = NIH3T3 cell viability loss – ATP luminescence, mouse fibroblasts, counter-screen, dose response (AID 2010); type: functional, cell-based;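 note: cells exposed to compound for about 90 hours before reading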
# [14] = Luminescence Cell-Based Dose Retest to Confirm Activators of 5'UTR Stem-Loop Driven Alpha-Synuclein mRNA Translation in H4 Neuroglioblastoma Cells. [Related pubchem assays (depositor defined):AID1813, AID1829]; type: functional
# [15] = Luminescence Cell-Based Dose Confirmation HTS to Identify Inhibitors of 5'UTR Stem-Loop Driven Alpha-Synuclein mRNA Translation in H4 Neuroglioblastoma Cells. [Related pubchem assays: 1827 (Project Summary), 1813 (Primary HTS)]; type: functional
# [16] = target: Induced myeloid leukemia cell differentiation protein Mcl-1 (Homo sapiens, UniProt Q07820); type: functional
# Chain of Induced myeloid leukemia cell differentiation protein Mcl-1 (Q07820 whole entry): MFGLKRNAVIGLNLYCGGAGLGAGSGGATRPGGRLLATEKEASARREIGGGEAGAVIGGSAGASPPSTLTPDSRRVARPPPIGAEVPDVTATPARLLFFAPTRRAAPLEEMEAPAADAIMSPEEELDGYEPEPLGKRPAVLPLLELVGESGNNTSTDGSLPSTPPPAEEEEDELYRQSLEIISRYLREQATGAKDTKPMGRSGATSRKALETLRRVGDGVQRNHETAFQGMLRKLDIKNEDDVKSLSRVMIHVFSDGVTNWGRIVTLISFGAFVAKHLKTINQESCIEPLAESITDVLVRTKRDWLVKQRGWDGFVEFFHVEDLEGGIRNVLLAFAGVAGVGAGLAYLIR
# [17] = HEK-293T viability loss after treatment – luminescence, T-cell screen hits, cytotoxicity control for TCR NF-kB inhibitor project, dose response (AID 489026); type: functional, cell-based;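 note: cells exposed to compound about 14 hours before the viability readout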
# [18] = alpha-synuclein stem-loop luciferase translation blockers – H4 neuroglioma cells, luminescence, confirmation (AID 1988); type: functional, cell-based
# [19] = Luminescence Cell-Based Dose Response HTS to Identify Activators of 5'UTR Stem-Loop Driven Prion Protein mRNA Translation in H4-C Neuroglioblastoma Cells. [Related pubchem assays: 1829 (Project Summary), 1814 (Primary HTS)]; type: functional
# [20] = alpha-synuclein stem-loop translation blockers – luminescence, H4 neuroglioblastoma cells, dose confirmation, confirmation (AID 2454); type: functional, cell-based;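 note: H4 neuroglioblastoma cells carrying an alpha-synuclein 5'UTR luciferase reporter; potency for inhibition of the luciferase signal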
# Streptococcus = test: GAS UMAA2166 growth inhibition – luminescence, BacTiterGlo, counter-screen for streptokinase expression inhibitor project, dose response (AID 1915); type: functional, organism-based;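 note: potency for reduction of bacterial viability or growth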
# [21] = luciferase reporter signal reduction – luminescence, H4-C neuroglioblastoma cells, dose response (AID 2458); type: functional, cell-based;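 note: H4 neuroglioblastoma cells stably carrying a luciferase reporter gene fusion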
# Beta-galactosidase = Beta-galactosidase (Escherichia coli, UniProt Q8VNN2); test: PubChem AID 485352; type: functional
# Chain of Beta-galactosidase (Q8VNN2 whole entry): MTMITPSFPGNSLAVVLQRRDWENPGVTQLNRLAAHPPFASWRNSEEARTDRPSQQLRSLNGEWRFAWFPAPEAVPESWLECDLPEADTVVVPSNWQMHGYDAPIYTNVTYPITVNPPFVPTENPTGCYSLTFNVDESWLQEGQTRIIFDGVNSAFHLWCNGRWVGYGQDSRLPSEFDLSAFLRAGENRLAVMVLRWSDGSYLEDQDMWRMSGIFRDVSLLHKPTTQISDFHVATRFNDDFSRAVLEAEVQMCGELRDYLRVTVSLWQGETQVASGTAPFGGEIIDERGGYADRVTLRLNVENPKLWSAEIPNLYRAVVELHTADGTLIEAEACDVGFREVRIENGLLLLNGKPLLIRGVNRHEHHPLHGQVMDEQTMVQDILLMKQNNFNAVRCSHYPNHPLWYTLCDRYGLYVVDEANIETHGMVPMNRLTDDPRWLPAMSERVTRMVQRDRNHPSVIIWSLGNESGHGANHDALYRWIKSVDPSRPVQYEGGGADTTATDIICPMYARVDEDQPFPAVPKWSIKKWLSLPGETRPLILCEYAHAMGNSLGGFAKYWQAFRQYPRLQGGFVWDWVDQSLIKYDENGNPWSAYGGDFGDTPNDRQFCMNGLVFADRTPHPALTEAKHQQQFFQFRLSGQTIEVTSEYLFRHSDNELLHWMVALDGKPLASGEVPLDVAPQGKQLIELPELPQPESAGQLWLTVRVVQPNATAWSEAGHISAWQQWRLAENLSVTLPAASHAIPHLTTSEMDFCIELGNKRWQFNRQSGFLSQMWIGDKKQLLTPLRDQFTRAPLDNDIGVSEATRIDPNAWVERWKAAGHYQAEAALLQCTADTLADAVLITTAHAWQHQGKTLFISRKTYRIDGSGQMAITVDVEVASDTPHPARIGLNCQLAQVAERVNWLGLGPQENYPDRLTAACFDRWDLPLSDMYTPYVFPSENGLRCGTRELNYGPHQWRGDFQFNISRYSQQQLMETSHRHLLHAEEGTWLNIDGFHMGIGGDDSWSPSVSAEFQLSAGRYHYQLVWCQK
# Cannabinoid receptor 2 [22] = target: T3, Cannabinoid receptor 2 (Homo sapiens, UniProt P34972); test: SAR analysis of agonists of the Cannabinoid Receptor 2 using an Image-Based Assay - Set 3. [Related pubchem assays (depositor defined):AID2013, AID2026]; type: functional
# T3 sequence (P34972 whole entry): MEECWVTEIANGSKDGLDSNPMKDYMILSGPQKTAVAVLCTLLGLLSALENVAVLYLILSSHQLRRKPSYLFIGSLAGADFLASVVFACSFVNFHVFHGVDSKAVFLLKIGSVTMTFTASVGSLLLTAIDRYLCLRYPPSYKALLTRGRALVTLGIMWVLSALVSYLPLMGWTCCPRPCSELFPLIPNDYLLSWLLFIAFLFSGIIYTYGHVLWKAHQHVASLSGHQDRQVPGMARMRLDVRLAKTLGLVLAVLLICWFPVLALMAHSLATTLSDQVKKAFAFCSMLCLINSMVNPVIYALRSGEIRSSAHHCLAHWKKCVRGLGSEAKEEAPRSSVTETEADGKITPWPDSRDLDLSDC
# [23] = target: T4, G-protein coupled receptor 35 (Homo sapiens, UniProt Q9HC97); test: SAR analysis of Antagonists of the GPR35 Receptor using an Image-Based Assay - Set 6. [Related pubchem assays (depositor defined):AID2013, AID2026]; type: functional
# T4 sequence (Q9HC97 whole entry): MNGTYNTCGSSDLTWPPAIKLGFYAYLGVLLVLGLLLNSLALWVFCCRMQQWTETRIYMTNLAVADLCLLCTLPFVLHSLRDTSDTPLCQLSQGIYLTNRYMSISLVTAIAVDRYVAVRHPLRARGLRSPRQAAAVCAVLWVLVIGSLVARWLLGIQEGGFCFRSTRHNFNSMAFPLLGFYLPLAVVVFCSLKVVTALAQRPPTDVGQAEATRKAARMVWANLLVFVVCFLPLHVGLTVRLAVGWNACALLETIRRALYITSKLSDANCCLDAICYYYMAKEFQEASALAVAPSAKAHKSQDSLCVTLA
# [24] = target: T4, G-protein coupled receptor 35; test: SAR analysis of Agonists of the GPR35 Receptor using an Image-Based Assay - Set 4. [Related pubchem assays (depositor defined):AID2013, AID2026]; type: functional
# Cannabinoid receptor 1 [25] = target: T5, Cannabinoid receptor 1 (Homo sapiens, UniProt P21554); test: SAR analysis of agonists of the Cannabinoid Receptor 1 using an Image-Based Assay - Set 4. [Related pubchem assays (depositor defined):AID2013, AID2026]; type: functional
# T5 sequence (P21554 whole entry): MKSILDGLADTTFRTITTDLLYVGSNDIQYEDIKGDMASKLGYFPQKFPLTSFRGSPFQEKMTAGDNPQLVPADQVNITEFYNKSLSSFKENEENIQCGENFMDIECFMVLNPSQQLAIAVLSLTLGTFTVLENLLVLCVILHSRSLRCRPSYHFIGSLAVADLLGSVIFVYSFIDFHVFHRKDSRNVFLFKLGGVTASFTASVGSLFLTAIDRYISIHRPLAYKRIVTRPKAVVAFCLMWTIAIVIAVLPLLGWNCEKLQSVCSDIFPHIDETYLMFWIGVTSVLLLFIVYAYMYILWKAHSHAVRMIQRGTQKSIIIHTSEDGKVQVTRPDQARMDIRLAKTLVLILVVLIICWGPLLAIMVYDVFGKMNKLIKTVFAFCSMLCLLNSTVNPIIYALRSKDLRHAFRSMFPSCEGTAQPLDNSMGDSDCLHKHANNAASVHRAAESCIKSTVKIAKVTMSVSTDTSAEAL
# Cannabinoid receptor 2 [26] = target: T3, Cannabinoid receptor 2; test: SAR analysis of antagonists of the Cannabinoid Receptor 2 using an Image-Based Assay - Set 3. [Related pubchem assays (depositor defined):AID2013, AID2026]; type: functional
# Cannabinoid receptor 1 [27] = target: T5, Cannabinoid receptor 1; test: SAR analysis of antagonists of the Cannabinoid Receptor 1 using an Image-Based Assay - Set 4. [Related pubchem assays (depositor defined):AID2013, AID2026]; type: functional
# [28] = target: G-protein coupled receptor 55 (Homo sapiens, UniProt Q9Y2T6); test: SAR Analysis of Selective Antagonists of GPR55 using an Image-Based Assay - Set 4. [Related pubchem assays (depositor defined):AID2013, AID2026]; type: functional;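 note: antagonism of response to 5 µM lysophosphatidylinositol agonist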
# Chain of G-protein coupled receptor 55 (Q9Y2T6 whole entry): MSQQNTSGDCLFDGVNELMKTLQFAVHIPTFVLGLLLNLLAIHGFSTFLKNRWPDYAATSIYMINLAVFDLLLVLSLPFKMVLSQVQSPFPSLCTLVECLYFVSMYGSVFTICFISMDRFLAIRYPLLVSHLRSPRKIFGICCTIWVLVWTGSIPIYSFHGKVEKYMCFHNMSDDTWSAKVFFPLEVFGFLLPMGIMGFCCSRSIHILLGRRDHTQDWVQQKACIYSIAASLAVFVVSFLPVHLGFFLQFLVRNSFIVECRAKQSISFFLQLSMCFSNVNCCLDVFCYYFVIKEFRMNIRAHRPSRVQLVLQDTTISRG
# [29] = target: T6, Sphingosine 1-phosphate receptor 4 (Homo sapiens, UniProt O95977); test: Fluorescence dose response cell-based high throughput screening assay for agonists of the Sphingosine 1-Phosphate Receptor 4 (S1P4). [Related pubchem assays: 1509 (Primary screen.), 1523 (Confirmation screen in triplicates.)]; type: functional
# T6 sequence (O95977 whole entry): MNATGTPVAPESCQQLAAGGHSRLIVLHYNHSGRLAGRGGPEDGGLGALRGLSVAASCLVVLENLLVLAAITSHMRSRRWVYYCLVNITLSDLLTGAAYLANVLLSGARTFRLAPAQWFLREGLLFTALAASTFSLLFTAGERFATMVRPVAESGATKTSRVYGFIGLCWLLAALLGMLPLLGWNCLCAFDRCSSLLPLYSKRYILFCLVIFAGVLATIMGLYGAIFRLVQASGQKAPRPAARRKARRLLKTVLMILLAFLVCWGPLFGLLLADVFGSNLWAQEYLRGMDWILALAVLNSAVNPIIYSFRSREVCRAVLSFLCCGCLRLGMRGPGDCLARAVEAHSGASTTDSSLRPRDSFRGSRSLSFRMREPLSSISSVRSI
# [30] = target: Sphingosine 1-phosphate receptor 1 (Homo sapiens, UniProt P21453); test: Fluorescence-based counterscreen assay for S1P4 agonists: Cell-based dose response high throughput screening assay to identify agonists of the Sphingosine 1-Phosphate Receptor 1 (S1P1). [Related pubchem assays (depositor defined):AID1509, AID1523, AID1801, AID463107, AID463118, AID463119, AID463122, AID463123, AID463129, AID463225, AID504400, AID504460]; type: functional
# Chain of Sphingosine 1-phosphate receptor 1 (P21453 whole entry): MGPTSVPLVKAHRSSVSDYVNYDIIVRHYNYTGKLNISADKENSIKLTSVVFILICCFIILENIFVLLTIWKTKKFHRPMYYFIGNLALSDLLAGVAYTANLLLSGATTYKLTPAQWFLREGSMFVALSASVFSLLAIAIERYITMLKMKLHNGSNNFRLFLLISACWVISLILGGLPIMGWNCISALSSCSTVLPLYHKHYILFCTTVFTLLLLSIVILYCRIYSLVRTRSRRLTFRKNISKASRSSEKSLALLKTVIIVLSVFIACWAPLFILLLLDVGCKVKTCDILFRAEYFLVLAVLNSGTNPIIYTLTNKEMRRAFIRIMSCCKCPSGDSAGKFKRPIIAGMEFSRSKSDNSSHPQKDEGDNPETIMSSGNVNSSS
# [31] = target: Kappa-type opioid receptor (Homo sapiens, UniProt P41145); test: SAR analysis of small molecule agonists of the kappa opioid receptor via a luminescent beta-arrestin assay - Set 3. [Related pubchem assays (depositor defined):AID1777, AID1785, AID1786, AID1966, AID2133, AID2136, AID2284, AID2500]; type: functional
# Chain of Kappa-type opioid receptor (P41145 whole entry): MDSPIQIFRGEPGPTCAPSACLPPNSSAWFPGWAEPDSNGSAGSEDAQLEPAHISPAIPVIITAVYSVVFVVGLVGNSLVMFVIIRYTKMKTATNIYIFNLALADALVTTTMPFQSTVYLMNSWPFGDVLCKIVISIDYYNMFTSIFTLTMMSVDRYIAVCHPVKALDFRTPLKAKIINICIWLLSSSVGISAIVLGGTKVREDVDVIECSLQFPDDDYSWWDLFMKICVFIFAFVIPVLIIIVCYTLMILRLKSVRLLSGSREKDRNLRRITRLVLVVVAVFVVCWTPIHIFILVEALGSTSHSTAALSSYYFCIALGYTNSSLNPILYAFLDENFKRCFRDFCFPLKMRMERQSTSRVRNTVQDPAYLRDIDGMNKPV
# [32] = target: T7, E3 ubiquitin-protein ligase XIAP (Homo sapiens, UniProt P98170); test: SAR analysis of Antagonists of IAP-family anti-apoptotic proteins. [Related pubchem assays (depositor defined):AID1018, AID1449, AID1513, AID1514, AID1638]
# T7 sequence (P98170 whole entry, the tested form may be a part): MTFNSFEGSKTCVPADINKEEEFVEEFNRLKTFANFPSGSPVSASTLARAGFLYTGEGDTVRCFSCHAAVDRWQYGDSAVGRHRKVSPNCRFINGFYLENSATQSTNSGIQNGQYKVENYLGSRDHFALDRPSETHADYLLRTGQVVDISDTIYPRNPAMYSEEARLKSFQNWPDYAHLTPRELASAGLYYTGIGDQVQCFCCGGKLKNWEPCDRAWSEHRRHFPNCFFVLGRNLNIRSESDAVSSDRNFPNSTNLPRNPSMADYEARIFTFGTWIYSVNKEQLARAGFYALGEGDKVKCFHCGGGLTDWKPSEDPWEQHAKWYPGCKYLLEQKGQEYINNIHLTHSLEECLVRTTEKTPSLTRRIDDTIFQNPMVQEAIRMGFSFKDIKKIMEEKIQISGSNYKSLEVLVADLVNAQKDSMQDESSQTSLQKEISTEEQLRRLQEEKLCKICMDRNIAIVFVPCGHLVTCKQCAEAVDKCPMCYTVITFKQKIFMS
# [33] = target: T7, E3 ubiquitin-protein ligase XIAP; test: SAR analysis of Antagonists of XIAP-Bir3 domain of IAP-family anti-apoptotic proteins. [Related pubchem assays (depositor defined):AID1018, AID1449, AID1513, AID1514, AID1638]
structure (smiles),measurement,setting,value
O=[N+]([O-])c1ccc(O)c(/C=N/Nc2ccc(Cl)nn2)c1,IC50,Nonstructural protein 1,1.32 µM (active)
same,EC50,[1],0.305 µM (active)
same,EC50,[2],> 180 µM (inactive)
same,EC50,[3],> 150 µM (inactive)
same,EC50,cells,0.779 µM (active)
same,EC50,[4],> 120 µM (not active)
same,EC50,[5],0.633 µM (active)
same,EC50,[6],0.925 µM (active)
same,EC50,[7],14.6 µM (inconclusive)
same,EC50,[8],0.179 µM (active)
same,EC50,[9],9.52 µM (active)
same,EC50,[10],0.904 µM (active)
same,EC50,[11],1.05 µM (inconclusive)
same,IC50,[12],3.63 µM (active)
same,EC50,[13],< 6 µM (inconclusive)
same,EC50,[14],0.673 µM (inconclusive)
same,EC50,[15],0.825 µM (active)
same,IC50,[16],14.1 µM (active)
same,IC50,[17],> 80 µM (inactive)
same,EC50,[18],< 0.1 µM (active)
same,EC50,[19],0.375 µM (inconclusive)
same,EC50,[20],0.65 µM (active)
same,EC50,Streptococcus,0.944 µM (active)
same,EC50,[21],0.717 µM (active)
same,EC50,Beta-galactosidase,> 40 µM (inactive)
COCCCNC(=O)c1cc2c(=O)n3ccccc3nc2n(C2CCCC2)c1=N,EC50,Cannabinoid receptor 2 [22],2.33 µM (active)
same,IC50,[23],> 32 µM (inactive)
same,EC50,[24],> 32 µM (inactive)
same,EC50,Cannabinoid receptor 1 [25],> 32 µM (inactive)
same,IC50,Cannabinoid receptor 2 [26],> 32 µM (inactive)
same,IC50,Cannabinoid receptor 1 [27],> 32 µM (inactive)
same,IC50,[28],> 32 µM (inactive)
Cc1cc(C)nc(N/N=C/c2ccc(N3CCOCC3)cc2)n1,EC50,[29],> 49.8 µM (not active)
same,EC50,[30],> 49.8 µM (inactive)
Cc1ccc2[nH]c(=O)c(CN(CCC(C)C)C(=O)c3ccccn3)cc2c1,EC50,[31],13.1 µM (inactive)
CN[C@@H](C)C(=O)N[C@H](C(=O)N[C@H](C(=O)Nc1cccc2ccccc12)C(C)C)C(C)C,IC50,[32],3.9 µM (active)
same,IC50,[33],> 100 µM (inactive)
